Biological target: human recombinant H-PGDS (Homo sapiens, UniProt O60760)
Assay: Fluorescence intensity h-PGDS TBA enzyme assay
Assay type: biochemical
Settings: Examples up to 622 (and 3a, 3b)

human recombinant H-PGDS, sequence (O60760 whole entry): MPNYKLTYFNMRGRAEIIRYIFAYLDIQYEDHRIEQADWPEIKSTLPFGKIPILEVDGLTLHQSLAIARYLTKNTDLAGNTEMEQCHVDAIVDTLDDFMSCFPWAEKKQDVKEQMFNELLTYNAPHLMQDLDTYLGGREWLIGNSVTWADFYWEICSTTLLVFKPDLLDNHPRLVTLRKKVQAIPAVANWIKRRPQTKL

| SMILES | IC50 |
| --- | --- |
| O=C(NC1CCN(c2cnc3ccccc3n2)CC1)c1ccc(-c2cccc(F)c2)nc1 [Example 138, 6-(3-Fluorophenyl)-N-(1-quinoxalin-2-ylpiperidin-4-yl)nicotinamide] | 1.23 nM |
| O=C(NC1CCN(c2ncccn2)CC1)c1ccc(-c2cccc(F)c2)nc1 [Example 139, 6-(3-Fluorophenyl)-N-(1-pyrimidin-2-ylpiperidin-4-yl)nicotinamide] | 0.222 nM |
| N#Cc1cccnc1N1CCC(NC(=O)c2ccc(-c3cccc(F)c3)nc2)CC1 [Example 140, N-[1-(3-Cyanopyridin-2-yl)piperidin-4-yl]-6-(3-fluorophenyl)nicotinamide] | 0.628 nM |
| Cc1noc(NC(=O)c2cccnc2N2CCC(NC(=O)c3ccc(-c4cccc(F)c4)nc3)CC2)c1C#N [Example 141, N-(4-Cyano-3-methylisoxazol-5-yl)-2-[4-({[6-(3-fluorophenyl)pyridin-3-yl]carbonyl}amino)piperidin-1-yl]nicotinamide] | 0.721 nM |
| N#Cc1nccnc1N1CCC(NC(=O)c2ccc(-c3cccc(F)c3)nc2)CC1 [Example 142, N-[1-(3-Cyanopyrazin-2-yl)piperidin-4-yl]-6-(3-fluorophenyl)nicotinamide] | 0.33 nM |
| Cc1cc(N(C)C)nc(N2CCC(NC(=O)c3ccc(-c4cccc(F)c4)nc3)CC2)n1 [Example 143, N-{1-[4-(Dimethylamino)-6-methylpyrimidin-2-yl]piperidin-4-yl}-6-(3-fluorophenyl)nicotinamide] | 0.688 nM |
| COCc1cc(N2CCC(NC(=O)c3ccc(-c4cccc(F)c4)nc3)CC2)nc(-c2ccccc2)n1 [Example 144, 6-(3-Fluorophenyl)-N-{1-[6-(methoxymethyl)-2-phenylpyrimidin-4-yl]piperidin-4-yl}nicotinamide] | 9.56 nM |
| CCOC(=O)c1cnc(C(F)(F)F)nc1N1CCC(NC(=O)c2ccc(-c3cccc(F)c3)nc2)CC1 [Example 145, Ethyl 4-[4-({[6-(3-fluorophenyl)pyridin-3-yl]carbonyl}amino)piperidin-1-yl]-2-(trifluoromethyl)pyrimidine-5-carboxylate] | 5.94 nM |
| O=C(NC1CCN(c2ncccc2C(=O)N2CCOCC2)CC1)c1ccc(-c2cccc(F)c2)nc1 [Example 146, 6-(3-Fluorophenyl)-N-{1-[3-(morpholin-4-ylcarbonyl)pyridin-2-yl]piperidin-4-yl}nicotinamide] | 1.55 nM |
| O=C(NC1CCN(c2ncnc3c2ncn3C2CCCCO2)CC1)c1ccc(-c2cccc(F)c2)nc1 (stereo not shown) [Example 147, 6-(3-Fluorophenyl)-N-{1-[9-(tetrahydro-2H-pyran-2-yl)-9H-purin-6-yl]piperidin-4-yl}nicotinamide] | 0.737 nM |
| NC(=O)c1ccc(C(F)(F)F)nc1N1CCC(NC(=O)c2ccc(-c3cccc(F)c3)nc2)CC1 [Example 148, 2-[4-({[6-(3-Fluorophenyl)pyridin-3-yl]carbonyl}amino)piperidin-1-yl]-6-(trifluoromethyl)nicotinamide] | 1.75 nM |
| O=C(NC1CCN(c2ccc(C(=O)c3ccccn3)cn2)CC1)c1ccc(-c2cccc(F)c2)nc1 [Example 149, 6-(3-Fluorophenyl)-N-{1-[5-(pyridin-2-ylcarbonyl)pyridin-2-yl]piperidin-4-yl}nicotinamide] | 1.82 nM |
| COC(=O)c1cc(C)nc(N2CCC(NC(=O)c3ccc(-c4cccc(F)c4)nc3)CC2)n1 [Example 150, Methyl 2-[4-({[6-(3-fluorophenyl)pyridin-3-yl]carbonyl}amino)piperidin-1-yl]-6-methylpyrimidine-4-carboxylate] | 1.8 nM |
| Nc1cc(N2CCC(NC(=O)c3ccc(-c4cccc(F)c4)nc3)CC2)ncn1 [Example 151, N-[1-(6-Aminopyrmidin-4-yl)piperidin-4-yl]-6-(3-fluorophenyl)nicotinamide] | 0.519 nM |
| O=C(NC1CCN(c2ncccc2C(=O)NCc2ccccc2)CC1)c1ccc(-c2cccc(F)c2)nc1 [Example 152, N-Benzyl-2-[4-({[6-(3-fluorophenyl)pyridin-3-yl]carbonyl}amino)piperidin-1-yl]nicotinamide] | 3.35 nM |
| O=C(NC1CCN(c2nc3ccccc3s2)CC1)c1ccc(-c2cccc(F)c2)nc1 [Example 153, N-[1-(1,3-Benzothiazol-2-yl)piperidin-4-yl]-6-(3-fluorophenyl)nicotinamide] | 1.89 nM |
| CCc1cn2nc(N3CCC(NC(=O)c4ccc(-c5cccc(F)c5)nc4)CC3)ccc2n1 [Example 154, N-[1-(2-Ethylimidazo[1,2-b]pyridazin-6-yl)piperidin-4-yl]-6-(3-fluorophenyl)nicotinamide] | 0.96 nM |
| CC(C)c1nccnc1N1CCC(NC(=O)c2ccc(-c3cccc(F)c3)nc2)CC1 [Example 155, 6-(3-Fluorophenyl)-N-[1-(3-isopropylpyrazin-2-yl)piperidin-4-yl]nicotinamide] | 2.3 nM |
| CC[C@@H](C)c1nccnc1N1CCC(NC(=O)c2ccc(-c3cccc(F)c3)nc2)CC1 [Example 156, 6-(3-Fluorophenyl)-N-(1-{3-[(1R)-1-methylpropyl]pyrazin-2-yl}piperidin-4-yl)nicotinamide] | 3.15 nM |

| SMILES | IC50 |
| --- | --- |
| CC(C)NC(=O)c1ccc(N2CCC(NC(=O)c3ccc(-c4cccc(F)c4)nc3)CC2)nn1 [Example 157, 6-[4-({[6-(3-Fluorophenyl)pyridin-3-yl]carbonyl}amino)piperidin-1-yl]-N-isopropylpyridazine-3-carboxamide] | 0.678 nM |
| O=C(NC1CCN(c2nc3ccccc3o2)CC1)c1ccc(-c2cccc(F)c2)nc1 [Example 158, N-[1-(1,3-Benzoxazol-2-yl)piperidin-4-yl]-6-(3-fluorophenyl)nicotinamide] | 1.58 nM |
| CC(C)CN(C)C(=O)c1ccc(N2CCC(NC(=O)c3ccc(-c4cccc(F)c4)nc3)CC2)nn1 [Example 159, 6-[4-({[6-(3-Fluorophenyl)pyridin-3-yl]carbonyl}amino)piperidin-1-yl]-N-isobutyl-N-methylpyridazine-3-carboxamide] | 1.59 nM |
| Cc1cc(NC(=O)c2ccc(N3CCC(NC(=O)c4ccc(-c5cccc(F)c5)nc4)CC3)nn2)n(C)n1 [Example 160, N-(1,3-Dimethyl-1H-pyrazol-5-yl)-6-[4-({[6-(3-fluorophenyl)pyridin-3-yl]carbonyl}amino)piperidin-1-yl]pyridazine-3-carboxamide] | 0.483 nM |
| Cn1c(-c2cccc(C#N)c2)nc2c(N3CCC(NC(=O)c4ccc(-c5cccc(F)c5)nc4)CC3)ncnc21 [Example 161, N-{1-[8-(3-Cyanophenyl)-9-methyl-9H-purin-6-yl]piperidin-4-yl}-6-(3-fluorophenyl)nicotinamide] | 3.85 nM |
| Cc1cnc(Cn2cnc3c(N4CCC(NC(=O)c5ccc(-c6cccc(F)c6)nc5)CC4)ncnc32)cn1 [Example 162, 6-(3-Fluorophenyl)-N-(1-{9-[(5-methylpyrazin-2-yl)methyl]-9H-purin-6-yl}piperidin-4-yl)nicotinamide] | 1.1 nM |
| O=C(NC1CCN(c2ccc(C(=O)NCC3CCCCC3)nn2)CC1)c1ccc(-c2cccc(F)c2)nc1 [Example 163, N-(Cyclohexylmethyl)-6-[4-({[6-(3-fluorophenyl)pyridin-3-yl]carbonyl}amino)piperidin-1-yl]pyridazine-3-carboxamide] | 14.5 nM |
| O=C(NC1CCN(c2ccc(C(=O)NCCN3CCNC3=O)nn2)CC1)c1ccc(-c2cccc(F)c2)nc1 [Example 164, 6-[4-({[6-(3-Fluorophenyl)pyridin-3-yl]carbonyl}amino)piperidin-1-yl]-N-[2-(2-oxoimidazolidin-1-yl)ethyl]pyridazine-3-carboxamide] | 0.422 nM |
| O=C(NC1CCN(c2ncccc2C(=O)N2CCCC2)CC1)c1ccc(-c2cccc(F)c2)nc1 [Example 165, 6-(3-Fluorophenyl)-N-{1-[3-(pyrrolidin-1-ylcarbonyl)pyridin-2-yl]piperidin-4-yl}nicotinamide] | 1.16 nM |
| O=C(NC1CCN(c2ncc3ccccc3n2)CC1)c1ccc(-c2cccc(F)c2)nc1 [Example 166, 6-(3-Fluorophenyl)-N-(1-quinazolin-2-ylpiperidin-4-yl)nicotinamide] | 3.44 nM |
| COC(=O)c1cnc(N2CCC(NC(=O)c3ccc(-c4cccc(F)c4)nc3)CC2)cn1 [Example 167, Methyl 5-[4-({[6-(3-fluorophenyl)pyridin-3-yl]carbonyl}amino)piperidin-1-yl]pyrazine-2-carboxylate] | 3.13 nM |
| Cc1cc(NC(=O)c2cccnc2N2CCC(NC(=O)c3ccc(-c4cccc(F)c4)nc3)CC2)no1 [Example 168, 2-[4-({[6-(3-Fluorophenyl)pyridin-3-yl]carbonyl}amino)piperidin-1-yl]-N-(5-methylisoxazol-3-yl)nicotinamide] | 2.53 nM |
| CCc1cnc(CC)c(N2CCC(NC(=O)c3ccc(-c4cccc(F)c4)nc3)CC2)n1 [Example 169, N-[1-(3,6-Diethylpyrazin-2-yl)piperidin-4-yl]-6-(3-fluorophenyl)nicotinamide] | 23.2 nM |
| NC(=O)c1cc2c(nc1N1CCC(NC(=O)c3ccc(-c4cccc(F)c4)nc3)CC1)CCC2 [Example 170, 2-[4-({[6-(3-Fluorophenyl)pyridin-3-yl]carbonyl}amino)piperidin-1-yl]-6,7-dihydro-5H-cyclopenta[b]pyridine-3-carboxamide] | 1.77 nM |
| O=C(NC1CCN(c2ncc3cccnc3n2)CC1)c1ccc(-c2cccc(F)c2)nc1 [Example 171, 6-(3-Fluorophenyl)-N-(1-pyrido[2,3-d]pyrimidin-2-ylpiperidin-4-yl)nicotinamide] | 1.41 nM |
| O=C(NC1CCN(c2nccc(-c3cccc(F)c3)n2)CC1)c1ccc(-c2cccc(F)c2)nc1 [Example 172, 6-(3-Fluorophenyl)-N-{1-[4-(3-fluorophenyl)pyrimidin-2-yl]piperidin-4-yl}nicotinamide] | 35 nM |
| COc1cc2ncc(N3CCC(NC(=O)c4ccc(-c5cccc(F)c5)nc4)CC3)nc2cc1OC [Example 173, N-[1-(6,7-Dimethoxyquinoxalin-2-yl)piperidin-4-yl]-6-(3-fluorophenyl)nicotinamide] | 16 nM |
| O=C(NC1CCN(c2ncc3ccc(F)cc3n2)CC1)c1ccc(-c2cccc(F)c2)nc1 [Example 174, 6-(3-Fluorophenyl)-N-[1-(7-fluoroquinazolin-2-yl)piperidin-4-yl]nicotinamide] | 8.97 nM |

Source: patent publication US7902373B2 (Pfizer Inc, priority 2006, dated 2011)
